In ChEMBL document CHEMBL6083210, “Exploring apoptotic induction of malabaricone A in triple-negative breast cancer cells: an acylphenol phyto-entity isolated from the fruit rind of Myristica malabarica Lam” (RSC Med Chem, 2024) one finds IC50 data, which are given here for 2 compounds.

What is called IC50 is the concentration that inhibits the measured activity by half.

Common to all, as to format: functional, cell-based
One experiment relates to MCF-10A. In words: Antiproliferative activity against human MCF-10A cells assessed as reduction in cell viability incubated for 24 hrs by MTT assay.
In a further experiment the test system is MDA-MB-231. In words: Antiproliferative activity against human MDA-MB-231 cells assessed as reduction in cell viability incubated for 24 hrs by MTT assay. As to conditions: MDA-MB-231, 24 h. In general terms: Tetrazolium assays rely on reduction of a dye to a coloured formazan, in cell work by metabolically active cells.
In a further experiment the test system is SK-BR-3. In words: Antiproliferative activity against human SK-BR-3 cells assessed as reduction in cell viability incubated for 24 hrs by MTT assay. As to conditions: SK-BR-3, 24 h.

With `O=C(CCCCCCCCc1ccc(O)cc1)c1c(O)cccc1O` [MALABARICONE B], the 50% inhibitory concentration (IC50) was 62 µM in the experiment on MCF-10A, 19.1 µM in the experiment on MDA-MB-231 and 13.5 µM with SK-BR-3.

On to `O=C(CCCCCCCCc1ccc(O)c(O)c1)c1c(O)cccc1O` [MALABARICONE C], for which the IC50 was determined as 97.3 µM with MCF-10A, 19.6 µM in the experiment on MDA-MB-231 and 16.4 µM in the experiment with SK-BR-3.
